Data taken from PubChem BioAssay AID1918933 (Molecular Pharmacology Branch, DTP, NCI, 2023).
Several values for one entry are separate records, joined by “and”; a condition that tells them apart may be missing. Identical values can stand only once.

Tested on: 186277-243-T-J2-PDC complex spheroid viability
Assay: Anticancer human tumor 186277-243-T-J2-PDC patient-derived colon adenocarcinoma cell line growth inhibition
Conditions: for viability, T/C: stronger effect = lower value; active = viability on the fitted dose curve at most 10% of control; inactive = the rest
Summary of the method: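 Complex spheroids of tumor cells with HUVEC and human MSCs, exposed to iadademstat combined with other agents. Each agent tested in half-log steps from near clinical Cmax (else 10 microM top), DMSO ≤0.25%.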

[1] = curve of first compound, second compound 0.1 µM
[2] = curve of first compound, second compound 0.316 µM
[3] = curve of first compound, second compound 1 µM
[4] = curve of first compound, second compound 3.16 µM
[5] = curve of first compound, second compound 10 µM
[6] = second compound 0.1 µM, first compound 0.00316 µM
[7] = second compound 0.1 µM, first compound 0.01 µM
[8] = second compound 0.1 µM, first compound 0.0316 µM
[9] = second compound 0.1 µM, first compound 0.1 µM
[10] = second compound 0.1 µM, first compound 0.316 µM
[11] = second compound 0.1 µM, first compound 1 µM
[12] = second compound 0.316 µM, first compound 0.00316 µM
[13] = second compound 0.316 µM, first compound 0.01 µM
[14] = second compound 0.316 µM, first compound 0.0316 µM
[15] = second compound 0.316 µM, first compound 0.1 µM
[16] = second compound 0.316 µM, first compound 0.316 µM
[17] = second compound 0.316 µM, first compound 1 µM
[18] = second compound 1 µM, first compound 0.00316 µM
[19] = second compound 1 µM, first compound 0.01 µM
[20] = second compound 1 µM, first compound 0.0316 µM
[21] = second compound 1 µM, first compound 0.1 µM
[22] = second compound 1 µM, first compound 0.316 µM
[23] = second compound 1 µM, first compound 1 µM
[24] = second compound 3.16 µM, first compound 0.00316 µM
[25] = second compound 3.16 µM, first compound 0.01 µM
[26] = second compound 3.16 µM, first compound 0.0316 µM
[27] = second compound 3.16 µM, first compound 0.1 µM
[28] = second compound 3.16 µM, first compound 0.316 µM
[29] = second compound 3.16 µM, first compound 1 µM
[30] = second compound 10 µM, first compound 0.00316 µM
[31] = second compound 10 µM, first compound 0.01 µM
[32] = second compound 10 µM, first compound 0.0316 µM
[33] = second compound 10 µM, first compound 0.1 µM
[34] = second compound 10 µM, first compound 0.316 µM
[35] = second compound 10 µM, first compound 1 µM
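Also: 7 day exposure to compounds.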
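For viability, T/C in this document: 100% = DMSO vehicle control viability.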

O=C(C=Cn1cnc(-c2cc(C(F)(F)F)cc(C(F)(F)F)c2)n1)NNc1cnccn1 + NC1CCC(NC2CC2c2ccccc2)CC1
18.2 nM: IC50 [4]
18.6 nM: IC50 [2]
inactive: viability, T/C [6] 98.7% | viability, T/C [7] 73.7% | viability, T/C [8] 19.7% | viability, T/C [12] 98.9% | viability, T/C [13] 83.6% | viability, T/C [14] 20.9% | viability, T/C [18] 91.4% | viability, T/C [19] 76.3% | viability, T/C [20] 19.3% | viability, T/C [24] 121% | viability, T/C [25] 83.3% | viability, T/C [26] 19.2% | viability, T/C [30] 131% | viability, T/C [31] 76.8% | viability, T/C [32] 17.3%
16.6 nM: IC50 [1]
17 nM: IC50 [3]
16.8 nM: IC50 [5]
active: viability, T/C [9] 5.58% | viability, T/C [10] 3.09% | viability, T/C [11] 0.76% | viability, T/C [15] 10.7% | viability, T/C [16] 3.03% | viability, T/C [17] 2.56% | viability, T/C [21] 7.63% | viability, T/C [22] 3.96% | viability, T/C [23] 0.59% | viability, T/C [27] 5.56% | viability, T/C [28] 5.32% | viability, T/C [29] 0.63% | viability, T/C [33] 4.86% | viability, T/C [34] 3.33% | viability, T/C [35] 0.57%

O=C(C=Cc1cccc(S(=O)(=O)Nc2ccccc2)c1)NO + NC1CC1c1ccc(-c2cccc(O)c2)cc1
260 nM: IC50 [3]
240 nM: IC50 [1]
inactive: viability, T/C (second compound 0.1 µM, first compound 0.00949 µM) 104% | viability, T/C (second compound 0.1 µM, first compound 0.03 µM) 103% | viability, T/C (second compound 0.1 µM, first compound 0.0949 µM) 94% | viability, T/C (second compound 0.1 µM, first compound 0.3 µM) 23.5% | viability, T/C (second compound 0.1 µM, first compound 0.949 µM) 3.89% | viability, T/C (second compound 0.1 µM, first compound 3 µM) 91.1% | viability, T/C (second compound 0.316 µM, first compound 0.00949 µM) 106% | viability, T/C (second compound 0.316 µM, first compound 0.03 µM) 113% | viability, T/C (second compound 0.316 µM, first compound 0.0949 µM) 90.8% | viability, T/C (second compound 0.316 µM, first compound 0.3 µM) 25.9% | viability, T/C (second compound 0.316 µM, first compound 0.949 µM) 3.14% | viability, T/C (second compound 0.316 µM, first compound 3 µM) 89.5% | viability, T/C (second compound 1 µM, first compound 0.00949 µM) 116% | viability, T/C (second compound 1 µM, first compound 0.03 µM) 101% | viability, T/C (second compound 1 µM, first compound 0.0949 µM) 109% | viability, T/C (second compound 1 µM, first compound 0.3 µM) 23.3% | viability, T/C (second compound 1 µM, first compound 0.949 µM) 3.06% | viability, T/C (second compound 1 µM, first compound 3 µM) 98.7% | viability, T/C (second compound 3.16 µM, first compound 0.00949 µM) 118% | viability, T/C (second compound 3.16 µM, first compound 0.03 µM) 106% | viability, T/C (second compound 3.16 µM, first compound 0.0949 µM) 111% | viability, T/C (second compound 3.16 µM, first compound 0.3 µM) 26% | viability, T/C (second compound 3.16 µM, first compound 0.949 µM) 3.1% | viability, T/C (second compound 3.16 µM, first compound 3 µM) 101% | viability, T/C (second compound 10 µM, first compound 0.00949 µM) 99.3% | viability, T/C (second compound 10 µM, first compound 0.03 µM) 96.8% | viability, T/C (second compound 10 µM, first compound 0.0949 µM) 87.5% | viability, T/C (second compound 10 µM, first compound 0.3 µM) 21.8% | viability, T/C (second compound 10 µM, first compound 0.949 µM) 1.11% | viability, T/C (second compound 10 µM, first compound 3 µM) 99%
268 nM: IC50 [4]
237 nM: IC50 [2]
238 nM: IC50 [5]

CC[C@@]1(O)C(=O)OCc2c1cc1n(c2=O)Cc2cc3c(CN(C)C)c(O)ccc3nc2-1
inactive: viability, T/C (compound 0.000316 µM) 113% and 102% | viability, T/C (compound 0.001 µM) 101% and 98% | viability, T/C (compound 0.00316 µM) 95.7% and 113% | viability, T/C (compound 0.01 µM) 93.4% and 118% | viability, T/C (compound 0.0316 µM) 74.8% and 75.9% | viability, T/C (compound 0.1 µM) 41.5% and 30.9%
75.9 nM and 61.3 nM: IC50 (curve of compound)

COc1ccc([C@@H](O)c2cc(-c3ncnc4cc(N5CCOCC5)ccc34)c(F)cc2Cl)nn1 + NC1CC1c1ccc(-c2cccc(O)c2)cc1
4390 nM: IC50 [3]
3730 nM: IC50 [5]
active: viability, T/C (second compound 10 µM, first compound 10 µM) 5.72%
inactive: viability, T/C [8] 105% | viability, T/C [9] 109% | viability, T/C [10] 112% | viability, T/C [11] 96.3% | viability, T/C (second compound 0.1 µM, first compound 3.16 µM) 81.8% | viability, T/C (second compound 0.1 µM, first compound 10 µM) 14% | viability, T/C [14] 109% | viability, T/C [15] 108% | viability, T/C [16] 110% | viability, T/C [17] 89.1% | viability, T/C (second compound 0.316 µM, first compound 3.16 µM) 70.8% | viability, T/C (second compound 0.316 µM, first compound 10 µM) 12.8% | viability, T/C [20] 107% | viability, T/C [21] 113% | viability, T/C [22] 114% | viability, T/C [23] 80.9% | viability, T/C (second compound 1 µM, first compound 3.16 µM) 68.7% | viability, T/C (second compound 1 µM, first compound 10 µM) 12.9% | viability, T/C [26] 110% | viability, T/C [27] 118% | viability, T/C [28] 97.1% | viability, T/C [29] 102% | viability, T/C (second compound 3.16 µM, first compound 3.16 µM) 64.7% | viability, T/C (second compound 3.16 µM, first compound 10 µM) 11.7% | viability, T/C [32] 97.7% | viability, T/C [33] 103% | viability, T/C [34] 106% | viability, T/C [35] 91.3% | viability, T/C (second compound 10 µM, first compound 3.16 µM) 57.8%
4680 nM: IC50 [2]
5370 nM: IC50 [1]
4410 nM: IC50 [4]

NS(=O)(=O)OCC1CC(n2ccc3c(NC4CCc5ccccc54)ncnc32)CC1O (stereo unspecified)
7.98% and 4.41%: viability, T/C (compound 3 µM)
180 nM and 162 nM: IC50 (curve of compound)
inactive: viability, T/C (compound 0.00949 µM) 93.9% and 100% | viability, T/C (compound 0.03 µM) 94.9% and 85.9% | viability, T/C (compound 0.0949 µM) 62.6% and 66.7% | viability, T/C (compound 0.3 µM) 37.2% and 33% | viability, T/C (compound 0.949 µM) 20.5% and 9.16%

COc1cc(Nc2ncc3c(n2)-c2ccc(Cl)cc2C(c2c(F)cccc2OC)=NC3)ccc1C(=O)O
inactive: viability, T/C (compound 0.00316 µM) 101% and 116% | viability, T/C (compound 0.01 µM) 57.4% and 106% | viability, T/C (compound 0.0316 µM) 30.4% and 99.2% | viability, T/C (compound 0.1 µM) 8.56% and 98.8%

O=C(C=Cc1cccc(S(=O)(=O)Nc2ccccc2)c1)NO
inactive: viability, T/C (compound 0.00949 µM) 102% and 94.1% | viability, T/C (compound 0.03 µM) 100% and 96.4% | viability, T/C (compound 0.0949 µM) 84.3% and 80.5% | viability, T/C (compound 0.3 µM) 36.6% and 22.1% | viability, T/C (compound 0.949 µM) 15.3% and 3.68%
223 nM and 234 nM: IC50 (curve of compound)

O=C(c1cc(Cc2n[nH]c(=O)c3ccccc23)ccc1F)N1CCN(C(=O)C2CC2)CC1
inactive: viability, T/C (compound 0.0316 µM) 100% and 90.9% | viability, T/C (compound 0.1 µM) 102% and 106% | viability, T/C (compound 0.316 µM) 105% and 103% | viability, T/C (compound 1 µM) 93.5% and 95.7% | viability, T/C (compound 3.16 µM) 69.7% and 113% | viability, T/C (compound 10 µM) 54.8% and 86.6%
> 10000 nM: IC50 (curve of compound)

CC(C)CC(NC(=O)CNC(=O)c1cc(Cl)ccc1Cl)B1OC(=O)CC(CC(=O)O)(C(=O)O)O1 (stereo unspecified) + NC1CC1c1ccc(-c2cccc(O)c2)cc1
7.75 nM: IC50 [5]
11 nM: IC50 [2]
10.7 nM: IC50 [3]
10.5 nM: IC50 [1]
active: viability, T/C [8] 6.34% | viability, T/C [9] 0.22% | viability, T/C [14] 1.86% | viability, T/C [15] 0.17% | viability, T/C [20] 1.62% | viability, T/C [21] 0.2% | viability, T/C [26] 1.26% | viability, T/C [27] 0.43% | viability, T/C [32] 0.83% | viability, T/C [33] 0.22%
10.6 nM: IC50 [4]
inactive: viability, T/C (second compound 0.1 µM, first compound 0.000316 µM) 110% | viability, T/C (second compound 0.1 µM, first compound 0.001 µM) 95.8% | viability, T/C [6] 111% | viability, T/C [7] 51.9% | viability, T/C (second compound 0.316 µM, first compound 0.000316 µM) 110% | viability, T/C (second compound 0.316 µM, first compound 0.001 µM) 111% | viability, T/C [12] 111% | viability, T/C [13] 54.3% | viability, T/C (second compound 1 µM, first compound 0.000316 µM) 110% | viability, T/C (second compound 1 µM, first compound 0.001 µM) 111% | viability, T/C [18] 116% | viability, T/C [19] 53.2% | viability, T/C (second compound 3.16 µM, first compound 0.000316 µM) 111% | viability, T/C (second compound 3.16 µM, first compound 0.001 µM) 117% | viability, T/C [24] 110% | viability, T/C [25] 52.6% | viability, T/C (second compound 10 µM, first compound 0.000316 µM) 117% | viability, T/C (second compound 10 µM, first compound 0.001 µM) 114% | viability, T/C [30] 100% | viability, T/C [31] 36.1%
